US20180319753A1, “MICROBIOCIDAL OXADIAZOLE DERIVATIVES” (SYNGENTA PARTICIPATIONS AG, priority 2015, published 2018)

Legend:
Phakopsora pachyrhizi = Phakopsora pachyrhizi / soybean / leaf disc preventative (Asian soybean rust); type: in vivo; conditions: foliar, 200 ppm in the applied formulation, soybean leaf disks, inoculated one day after application, assessed 12 to 14 days after application, read-out: disease control compared to untreated control leaf disks
Protocol: Leaf disks or leaf segments of various plant species are cut from plants grown in a greenhouse. The cut leaf disks or segments are placed in multiwell plates (24-well format) onto water agar. The leaf disks are sprayed with a test solution before (preventative) or after (curative) inoculation. Compounds to be tested are prepared as DMSO solutions (max. 10 mg/ml) which are diluted to the appropriate concentration with 0.025% Tween20 just before spraying. The inoculated leaf disks or segments are incubated under defined conditions (temperature, relative humidity, light, etc.) according to the respective test system. A single evaluation of disease level is carried out 3 to 14 days after inoculation, depending on the pathosystem. Percent disease control relative to the untreated check leaf disks or segments is then calculated.
Soybean leaf disks are placed on water agar in multiwell plates (24-well format) and sprayed with the formulated test compound diluted in water. One day after application leaf discs are inoculated by spraying a spore suspension on the lower leaf surface. After an incubation period in a climate cabinet of 24-36 hours in darkness at 20° C. and 75% rh leaf disc are kept at 20° C. with 12 h light/day and 75% rh. The activity of a compound is assessed as percent disease control compared to untreated when an appropriate level of disease damage appears in untreated check leaf disks (12 to 14 days after application).
The following compounds at 200 ppm in the applied formulation give at least 80% disease control in this test when compared to untreated control leaf disks under the same conditions, which show extensive disease development.

[1] = test system: Glomerella lagenarium (Colletotrichum lagenarium); assay: Glomerella lagenarium (Colletotrichum lagenarium) liquid culture / cucumber / preventative (anthracnose); type: cell-based; conditions: Colletotrichum orbiculare; 20 ppm in the applied formulation; liquid culture in PDB, 24° C.; 3 to 4 days after application; read-out: disease control compared to untreated control (inhibition of growth measured photometrically)
Protocol: Mycelia fragments or conidia suspensions of a fungus prepared either freshly from liquid cultures of the fungus or from cryogenic storage, are directly mixed into nutrient broth. DMSO solutions of the test compound (max. 10 mg/ml) are diluted with 0.025% Tween20 by a factor of 50 and 10 μl of this solution is pipetted into a microtiter plate (96-well format). The nutrient broth containing the fungal spores/mycelia fragments is then added to give an end concentration of the tested compound. The test plates are incubated in the dark at 24° C. and 96% relative humidity. The inhibition of fungal growth is determined photometrically after 2 to 7 days, depending on the pathosystem, and percent antifungal activity relative to the untreated check is calculated.
Conidia of the fungus from cryogenic storage are directly mixed into nutrient broth (PDB—potato dextrose broth). After placing a (DMSO) solution of test compound into a microtiter plate (96-well format), the nutrient broth containing the fungal spores is added. The test plates are incubated at 24° C. and the inhibition of growth is measured photometrically 3 to 4 days after application.
The following compounds at 20 ppm in the applied formulation give at least 80% disease control in this test when compared to untreated control under the same conditions, which show extensive disease development.

| melting point [°C] | Structure (SMILES) | pest or weed control at 200 ppm (Phakopsora pachyrhizi) [%] | inhibition at 20 ppm [1] [%] |
| --- | --- | --- | --- |
| 110 to 116 | O=S(=O)(c1ccc(-c2noc(C(F)(F)F)n2)cc1)C1CCCCC1 [Compound 3.3, 3-(4-cyclohexylsulfonylphenyl)-5-(trifluoromethyl)-1,2,4-oxadiazole] | ≥ 80 | ≥ 80 |
| 172 to 178 | O=S(=O)(Cc1ccc(-c2noc(C(F)(F)F)n2)c(F)c1)c1ccccc1 [Compound 3.22, 3-[4-(benzenesulfonylmethyl)-2-fluoro-phenyl]-5-(trifluoromethyl)-1,2,4-oxadiazole] | ≥ 80 | – |
| 149 to 156 | [O-][S+](Cc1ccc(-c2noc(C(F)(F)F)n2)c(F)c1)c1ccccc1 (stereo not drawn) [Compound 2.30, 3-[4-(benzenesulfinylmethyl)-2-fluoro-phenyl]-5-(trifluoromethyl)-1,2,4-oxadiazole] | – | – |
| 150 to 154 | O=S(=O)(Cc1ccc(-c2noc(C(F)(F)F)n2)cc1)c1ccccc1F [Compound 3.11, 3-[4-[(2-fluorophenyl)sulfonylmethyl]phenyl]-5-(trifluoromethyl)-1,2,4-oxadiazole] | ≥ 80 | – |
| 133 to 136 | CC(C)(C)S(=O)(=O)c1ccc(-c2noc(C(F)(F)F)n2)cc1 [Compound 3.13, 3-(4-tert-butylsulfonylphenyl)-5-(trifluoromethyl)-1,2,4-oxadiazole] | – | ≥ 80 |
| 122 to 125 | [O-][S+](Cc1ccccc1)c1ccc(-c2noc(C(F)(F)F)n2)cn1 (stereo not drawn) [Compound 2.27, 3-(6-benzylsulfinyl-3-pyridyl)-5-(trifluoromethyl)-1,2,4-oxadiazole] | – | ≥ 80 |
| 80 to 86 | [O-][S+](c1ccc(-c2noc(C(F)(F)F)n2)cc1)c1ccccc1C(F)(F)F (stereo not drawn) [Compound 2.21, 5-(trifluoromethyl)-3-[4-[2-(trifluoromethyl)phenyl]sulfinylphenyl]-1,2,4-oxadiazole] | ≥ 80 | – |
| 75 to 80 | CCC(C)CS(=O)(=O)c1ccc(-c2noc(C(F)(F)F)n2)cc1 (stereo not drawn) [Compound 3.15, 3-[4-(2-methylbutylsulfonyl)phenyl]-5-(trifluoromethyl)-1,2,4-oxadiazole] | – | ≥ 80 |
| 117 to 124 | Cc1cc(-c2noc(C(F)(F)F)n2)ccc1S(=O)(=O)c1ccccc1 [Compound 3.8, 3-[4-(benzenesulfonyl)-3-methyl-phenyl]-5-(trifluoromethyl)-1,2,4-oxadiazole] | – | ≥ 80 |
| 66 to 68 | FC(F)(F)c1nc(-c2ccc(SCc3ccccc3)nc2)no1 [Compound 1.21, 3-(6-benzylsulfanyl-3-pyridyl)-5-(trifluoromethyl)-1,2,4-oxadiazole] | – | ≥ 80 |
| 66 to 72 | Cc1cc(-c2noc(C(F)(F)F)n2)ccc1SCc1ccccc1 [Compound 1.22, 3-(4-benzylsulfanyl-3-methyl-phenyl)-5-(trifluoromethyl)-1,2,4-oxadiazole] | – | – |
| 118 to 125 | Cc1ccc(C)c(S(=O)(=O)c2ccc(-c3noc(C(F)(F)F)n3)cc2)c1 [Compound 3.6, 3-[4-(2,5-dimethylphenyl)sulfonyl-phenyl]-5-(trifluoromethyl)-1,2,4-oxadiazole] | – | ≥ 80 |
| 178 to 181 | [O-][S+](Cc1ccccc1)c1ccc(-c2noc(C(F)(F)F)n2)cc1 (stereo not drawn) [Compound 2.4, 3-(4-benzylsulfinylphenyl)-5-(trifluoromethyl)-1,2,4-oxadiazole] | – | ≥ 80 |
| 135 to 140 | O=S(=O)(Cc1c(F)cc(-c2noc(C(F)(F)F)n2)cc1F)c1ccccc1 [Compound 3.24, 3-[4-(benzenesulfonylmethyl)-3,5-difluoro-phenyl]-5-(trifluoromethyl)-1,2,4-oxadiazole] | ≥ 80 | – |
| 187 to 191 | O=S(=O)(Cc1ccc(-c2noc(C(F)(F)F)n2)c(F)c1F)c1ccccc1 [Compound 3.23, 3-[4-(benzenesulfonylmethyl)-2,3-difluoro-phenyl]-5-(trifluoromethyl)-1,2,4-oxadiazole] | ≥ 80 | – |
| 117 to 122 | O=S(=O)(CC(F)(F)F)c1ccc(-c2noc(C(F)(F)F)n2)cc1 [Compound 3.5, 3-[4-(2,2,2-trifluoroethylsulfonyl)phenyl]-5-(trifluoromethyl)-1,2,4-oxadiazole] | – | ≥ 80 |
| 50 to 55 | Fc1cc(-c2noc(C(F)(F)F)n2)cc(F)c1CSc1ccccc1 [Compound 1.27, 3-[3,5-difluoro-4-(phenylsulfanylmethyl)phenyl]-5-(trifluoromethyl)-1,2,4-oxadiazole] | – | ≥ 80 |

The next lines start with the compound.

| Structure (SMILES) | melting point [°C] | pest or weed control at 200 ppm (Phakopsora pachyrhizi) [%] | inhibition at 20 ppm [1] [%] |
| --- | --- | --- | --- |
| FC(F)(F)c1nc(-c2ccc(CSc3ccccc3)cc2)no1 [Compound 1.13, 3-[4-(phenylsulfanylmethyl)phenyl]-5-(trifluoromethyl)-1,2,4-oxadiazole] | 86 to 91 | ≥ 80 | – |
| FC(F)(F)c1nc(-c2ccc(SCc3ccccc3)cc2)no1 [Compound 1.3, 3-(4-benzylsulfanylphenyl)-5-(trifluoromethyl)-1,2,4-oxadiazole] | 83 to 87 | – | – |
| Fc1ccccc1Sc1ccc(-c2noc(C(F)(F)F)n2)cn1 [Compound 1.20, 3-[6-(2-fluorophenyl)sulfanyl-3-pyridyl]-5-(trifluoromethyl)-1,2,4-oxadiazole] | – | ≥ 80 | ≥ 80 |
| CC(C)(C)Sc1ccc(-c2noc(C(F)(F)F)n2)cc1 [Compound 1.16, 3-(4-tert-butylsulfanylphenyl)-5-(trifluoromethyl)-1,2,4-oxadiazole] | – | – | ≥ 80 |
| Cc1ccccc1Sc1ccc(-c2noc(C(F)(F)F)n2)cn1 [Compound 1.19, 3-[6-(o-tolylsulfanyl)-3-pyridyl]-5-(trifluoromethyl)-1,2,4-oxadiazole] | – | – | ≥ 80 |
| FC(F)(F)c1nc(-c2ccc(Sc3ccccc3Cl)cc2)no1 [Compound 1.18, 3-[4-(2-chlorophenyl)sulfanylphenyl]-5-(trifluoromethyl)-1,2,4-oxadiazole] | – | ≥ 80 | – |
| Fc1cccc(F)c1CSc1ccc(-c2noc(C(F)(F)F)n2)cc1 [Compound 1.6, 3-[4-[(2,6-difluorophenyl)methylsulfanyl]phenyl]-5-(trifluoromethyl)-1,2,4-oxadiazole] | – | ≥ 80 | – |
| O=S(=O)(c1ccc(-c2noc(C(F)(F)F)n2)cc1)c1ccc(F)cc1F [Compound 3.4, 3-[4-(2,4-difluorophenyl)sulfonyl-phenyl]-5-(trifluoromethyl)-1,2,4-oxadiazole] | – | ≥ 80 | ≥ 80 |
| Cc1ccccc1Sc1ccc(-c2noc(C(F)(F)F)n2)cc1 [Compound 1.17, 3-[4-(o-tolylsulfanyl)phenyl]-5-(trifluoromethyl)-1,2,4-oxadiazole] | – | ≥ 80 | – |
| COc1ccccc1Sc1ccc(-c2noc(C(F)(F)F)n2)cc1 [Compound 1.11, 3-[4-(2-methoxyphenyl)sulfanyl-phenyl]-5-(trifluoromethyl)-1,2,4-oxadiazole] | – | ≥ 80 | – |
| FC(F)(F)CSc1ccc(-c2noc(C(F)(F)F)n2)cc1 [Compound 1.4, 3-[4-(2,2,2-trifluoroethylsulfanyl)phenyl]-5-(trifluoromethyl)-1,2,4-oxadiazole] | – | ≥ 80 | – |
| O=S(=O)(c1ccc(-c2noc(C(F)(F)F)n2)cc1)c1ccccc1Cl [Compound 3.20, 3-[4-(2-chlorophenyl)sulfonylphenyl]-5-(trifluoromethyl)-1,2,4-oxadiazole] | – | ≥ 80 | ≥ 80 |
| Fc1ccc(Sc2ccc(-c3noc(C(F)(F)F)n3)cc2)cc1 [Compound 1.9, 3-[4-(4-fluorophenyl)sulfanylphenyl]-5-(trifluoromethyl)-1,2,4-oxadiazole] | 64 to 67 | ≥ 80 | – |
